Measurements reported in the kinase profiling compilation of Christmann-Franck et al. (2016).

What was measured:
Settings in all cases: compound 10.0 µM
[1] = target: ACVR2B (human) (UniProt Q13705)
[2] = target: AKT3 (human) (UniProt Q9Y243)
[3] = target: CAMKK2 (human) (UniProt Q96RR4)
[4] = target: CDK16 (human) (UniProt Q00536)
[5] = target: CDKL1 (human) (UniProt Q00532)
[6] = target: CDKL2 (human) (UniProt Q92772)
[7] = target: CSNK1D (human) (UniProt P48730)
[8] = target: CSNK1G3 (human) (UniProt Q9Y6M4)
[9] = target: DCLK1 (human) (UniProt O15075)
[10] = target: DCLK2 (human) (UniProt Q8N568)
[11] = target: DYRK1A (human) (UniProt Q13627)
[12] = target: DYRK1B (human) (UniProt Q9Y463)
[13] = target: DYRK2 (human) (UniProt Q92630)
[14] = target: EPHA8 (human) (UniProt P29322)
[15] = test system: FLT3 (human), P36888 [D835H]
[16] = target: IRAK3 (human) (UniProt Q9Y616)
[17] = target: LIMK2 (human) (UniProt P53671)
[18] = target: LTK (human) (UniProt P29376)
[19] = target: LYN (human) (UniProt P07948)
[20] = target: MAPK12 (human) (UniProt P53778)
[21] = target: MAPKAPK5 (human) (UniProt Q8IW41)
[22] = target: MARK1 (human) (UniProt Q9P0L2)
[23] = target: NEK2 (human) (UniProt P51955)
[24] = target: NEK3 (human) (UniProt P51956)
[25] = target: NEK4 (human) (UniProt P51957)
[26] = target: PIK3CB (human) (UniProt P42338)
[27] = target: PIP4K2B (human) (UniProt P78356)
[28] = target: PRKCE (human) (UniProt Q02156)
[29] = target: PRKD3 (human) (UniProt O94806)
[30] = target: PRKG1 (human) (UniProt Q13976)
[31] = target: PRPF4B (human) (UniProt Q13523)
[32] = test system: RET (human), P07949 [V804L]
[33] = target: RPS6KA4 KD2 (human) (UniProt O75676)
[34] = target: RPS6KB1 (human) (UniProt P23443)
[35] = target: SNRK (human) (UniProt Q9NRH2)
[36] = target: STK16 (human) (UniProt O75716)
[37] = target: STK36 (human) (UniProt Q9NRP7)
[38] = target: STK38 (human) (UniProt Q15208)
[39] = target: STK38L (human) (UniProt Q9Y2H1)
[40] = target: TEK (human) (UniProt Q02763)
[41] = target: TXK (human) (UniProt P42681)

LYN (human), sequence (P07948 whole entry, looked up): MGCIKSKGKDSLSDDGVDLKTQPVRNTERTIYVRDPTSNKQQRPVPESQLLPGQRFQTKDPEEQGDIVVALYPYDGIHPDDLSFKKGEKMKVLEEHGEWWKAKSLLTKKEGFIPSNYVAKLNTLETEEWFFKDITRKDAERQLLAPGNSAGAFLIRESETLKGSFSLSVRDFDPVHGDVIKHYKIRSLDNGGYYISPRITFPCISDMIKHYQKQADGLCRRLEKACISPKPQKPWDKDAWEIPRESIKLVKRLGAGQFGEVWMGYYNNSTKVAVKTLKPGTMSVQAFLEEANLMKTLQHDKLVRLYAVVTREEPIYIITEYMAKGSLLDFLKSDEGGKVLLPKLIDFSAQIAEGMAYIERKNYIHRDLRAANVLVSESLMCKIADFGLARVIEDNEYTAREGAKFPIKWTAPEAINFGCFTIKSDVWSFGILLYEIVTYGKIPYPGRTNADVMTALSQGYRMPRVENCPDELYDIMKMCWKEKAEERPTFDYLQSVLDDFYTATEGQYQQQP
TEK (human), sequence (Q02763 whole entry, looked up): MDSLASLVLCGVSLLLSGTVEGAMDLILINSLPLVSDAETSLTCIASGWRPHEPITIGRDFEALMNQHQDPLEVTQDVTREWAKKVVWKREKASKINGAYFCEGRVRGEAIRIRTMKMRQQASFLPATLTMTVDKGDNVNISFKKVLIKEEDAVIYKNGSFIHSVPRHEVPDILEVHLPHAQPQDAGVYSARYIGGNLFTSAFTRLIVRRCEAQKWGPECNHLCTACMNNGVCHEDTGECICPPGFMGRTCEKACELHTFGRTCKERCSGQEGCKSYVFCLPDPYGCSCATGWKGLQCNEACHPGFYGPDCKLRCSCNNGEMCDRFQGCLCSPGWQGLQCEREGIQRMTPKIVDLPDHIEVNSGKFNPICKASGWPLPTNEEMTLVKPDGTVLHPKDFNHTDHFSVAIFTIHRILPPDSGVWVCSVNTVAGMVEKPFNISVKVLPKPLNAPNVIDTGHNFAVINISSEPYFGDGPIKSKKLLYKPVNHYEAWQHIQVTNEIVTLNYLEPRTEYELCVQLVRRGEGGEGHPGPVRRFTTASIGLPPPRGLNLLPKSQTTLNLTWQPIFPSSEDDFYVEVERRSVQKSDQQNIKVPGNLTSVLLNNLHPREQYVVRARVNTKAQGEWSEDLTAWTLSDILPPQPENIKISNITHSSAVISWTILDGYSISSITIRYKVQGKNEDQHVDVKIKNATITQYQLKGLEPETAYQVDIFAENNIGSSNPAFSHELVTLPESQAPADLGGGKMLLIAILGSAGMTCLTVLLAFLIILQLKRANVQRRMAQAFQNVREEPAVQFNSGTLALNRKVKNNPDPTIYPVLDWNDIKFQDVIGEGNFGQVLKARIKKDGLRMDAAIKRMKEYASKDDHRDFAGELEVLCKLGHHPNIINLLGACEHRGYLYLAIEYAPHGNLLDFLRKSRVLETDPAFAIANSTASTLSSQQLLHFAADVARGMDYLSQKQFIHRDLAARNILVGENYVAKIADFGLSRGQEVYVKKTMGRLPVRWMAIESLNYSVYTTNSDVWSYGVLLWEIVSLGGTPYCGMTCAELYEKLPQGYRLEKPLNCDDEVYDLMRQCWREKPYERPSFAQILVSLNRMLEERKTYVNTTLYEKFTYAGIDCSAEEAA
PRKD3 (human), sequence (O94806 whole entry, looked up): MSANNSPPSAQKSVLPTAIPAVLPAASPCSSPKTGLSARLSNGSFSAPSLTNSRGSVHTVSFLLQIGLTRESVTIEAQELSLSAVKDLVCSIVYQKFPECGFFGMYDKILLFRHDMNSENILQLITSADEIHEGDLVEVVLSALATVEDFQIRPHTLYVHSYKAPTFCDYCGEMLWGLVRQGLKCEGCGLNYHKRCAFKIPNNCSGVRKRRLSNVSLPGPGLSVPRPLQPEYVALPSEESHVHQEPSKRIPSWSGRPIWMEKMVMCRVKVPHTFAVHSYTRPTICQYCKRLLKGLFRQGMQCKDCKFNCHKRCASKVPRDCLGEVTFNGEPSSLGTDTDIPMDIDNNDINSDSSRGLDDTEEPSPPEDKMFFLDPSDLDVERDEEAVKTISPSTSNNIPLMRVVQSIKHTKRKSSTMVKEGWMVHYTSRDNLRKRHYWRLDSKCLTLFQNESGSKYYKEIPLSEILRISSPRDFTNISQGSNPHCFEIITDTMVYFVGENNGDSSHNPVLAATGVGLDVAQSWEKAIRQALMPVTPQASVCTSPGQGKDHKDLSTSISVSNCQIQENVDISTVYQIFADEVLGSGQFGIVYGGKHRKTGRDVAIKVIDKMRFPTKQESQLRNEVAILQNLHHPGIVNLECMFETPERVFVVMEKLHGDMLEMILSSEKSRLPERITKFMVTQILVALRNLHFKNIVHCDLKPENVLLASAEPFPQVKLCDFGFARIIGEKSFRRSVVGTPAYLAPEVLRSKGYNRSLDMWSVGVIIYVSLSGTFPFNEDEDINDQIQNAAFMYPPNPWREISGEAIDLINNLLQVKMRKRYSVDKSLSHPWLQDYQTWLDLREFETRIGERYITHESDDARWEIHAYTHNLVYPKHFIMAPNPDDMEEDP
EPHA8 (human), sequence (P29322 whole entry, looked up): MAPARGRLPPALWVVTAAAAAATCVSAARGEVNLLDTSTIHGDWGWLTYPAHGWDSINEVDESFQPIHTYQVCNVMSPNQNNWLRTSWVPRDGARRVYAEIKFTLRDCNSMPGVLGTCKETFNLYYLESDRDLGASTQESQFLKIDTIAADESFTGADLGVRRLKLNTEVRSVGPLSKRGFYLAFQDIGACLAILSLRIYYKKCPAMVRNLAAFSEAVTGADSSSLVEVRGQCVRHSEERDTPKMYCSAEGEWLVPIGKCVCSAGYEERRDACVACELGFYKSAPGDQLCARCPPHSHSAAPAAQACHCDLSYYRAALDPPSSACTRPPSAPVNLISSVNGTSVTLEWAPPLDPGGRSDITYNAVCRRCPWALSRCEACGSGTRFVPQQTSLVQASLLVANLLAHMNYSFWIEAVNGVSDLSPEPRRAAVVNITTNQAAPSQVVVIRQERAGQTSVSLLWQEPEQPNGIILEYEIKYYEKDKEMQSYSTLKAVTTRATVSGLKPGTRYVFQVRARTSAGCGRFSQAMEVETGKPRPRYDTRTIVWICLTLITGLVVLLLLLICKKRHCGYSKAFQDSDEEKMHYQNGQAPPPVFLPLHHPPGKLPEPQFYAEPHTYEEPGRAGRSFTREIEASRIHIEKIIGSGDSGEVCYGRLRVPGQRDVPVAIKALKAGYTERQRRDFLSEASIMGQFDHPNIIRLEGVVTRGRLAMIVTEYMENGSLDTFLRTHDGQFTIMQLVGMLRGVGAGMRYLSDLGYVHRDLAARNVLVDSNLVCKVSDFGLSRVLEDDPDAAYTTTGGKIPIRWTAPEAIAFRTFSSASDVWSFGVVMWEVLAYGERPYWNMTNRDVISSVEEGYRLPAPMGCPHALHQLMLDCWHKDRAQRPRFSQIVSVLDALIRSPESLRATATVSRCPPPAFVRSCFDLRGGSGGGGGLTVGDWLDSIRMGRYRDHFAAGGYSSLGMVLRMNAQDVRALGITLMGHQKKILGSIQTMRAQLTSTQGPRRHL
STK38 (human), sequence (Q15208 whole entry, looked up): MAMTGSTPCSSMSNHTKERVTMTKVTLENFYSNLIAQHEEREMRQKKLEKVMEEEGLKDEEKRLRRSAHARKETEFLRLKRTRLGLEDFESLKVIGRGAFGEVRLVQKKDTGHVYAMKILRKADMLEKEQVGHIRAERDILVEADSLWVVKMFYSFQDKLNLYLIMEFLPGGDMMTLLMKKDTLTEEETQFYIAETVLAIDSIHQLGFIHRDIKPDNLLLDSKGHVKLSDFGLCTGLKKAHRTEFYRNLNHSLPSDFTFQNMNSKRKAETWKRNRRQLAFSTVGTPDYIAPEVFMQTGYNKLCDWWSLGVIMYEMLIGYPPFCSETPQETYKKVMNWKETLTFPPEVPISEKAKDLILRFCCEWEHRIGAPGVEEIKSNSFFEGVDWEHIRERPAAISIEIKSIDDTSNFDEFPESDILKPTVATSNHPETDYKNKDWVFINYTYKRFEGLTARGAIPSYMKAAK
DCLK1 (human), sequence (O15075 whole entry, looked up): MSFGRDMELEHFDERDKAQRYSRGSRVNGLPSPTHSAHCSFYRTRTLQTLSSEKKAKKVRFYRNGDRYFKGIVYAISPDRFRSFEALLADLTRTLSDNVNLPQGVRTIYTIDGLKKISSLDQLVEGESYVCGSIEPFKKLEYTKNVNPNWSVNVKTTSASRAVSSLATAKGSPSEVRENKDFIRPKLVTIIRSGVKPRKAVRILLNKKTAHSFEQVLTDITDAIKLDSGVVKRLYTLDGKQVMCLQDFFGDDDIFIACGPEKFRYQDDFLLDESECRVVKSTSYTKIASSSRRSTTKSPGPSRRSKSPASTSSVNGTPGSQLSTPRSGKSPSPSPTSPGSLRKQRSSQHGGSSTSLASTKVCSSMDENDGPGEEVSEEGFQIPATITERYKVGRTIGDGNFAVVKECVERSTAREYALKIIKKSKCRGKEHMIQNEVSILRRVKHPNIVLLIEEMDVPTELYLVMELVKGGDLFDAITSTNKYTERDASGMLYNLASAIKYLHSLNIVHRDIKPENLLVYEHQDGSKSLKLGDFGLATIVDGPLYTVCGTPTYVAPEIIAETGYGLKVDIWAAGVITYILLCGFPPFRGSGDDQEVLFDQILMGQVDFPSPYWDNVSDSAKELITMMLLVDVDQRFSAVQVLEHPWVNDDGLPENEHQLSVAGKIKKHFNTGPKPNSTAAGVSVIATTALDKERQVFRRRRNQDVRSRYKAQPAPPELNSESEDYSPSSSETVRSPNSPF
STK16 (human), sequence (O75716 whole entry, looked up): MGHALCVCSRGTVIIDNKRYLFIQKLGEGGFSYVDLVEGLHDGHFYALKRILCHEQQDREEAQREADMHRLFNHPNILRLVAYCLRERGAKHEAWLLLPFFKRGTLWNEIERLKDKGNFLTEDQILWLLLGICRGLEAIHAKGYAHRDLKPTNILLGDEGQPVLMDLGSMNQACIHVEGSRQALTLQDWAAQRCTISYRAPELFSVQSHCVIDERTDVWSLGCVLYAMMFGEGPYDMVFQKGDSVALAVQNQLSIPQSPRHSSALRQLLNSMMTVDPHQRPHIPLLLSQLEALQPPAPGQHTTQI

SMILES: CNC(=O)c1cc(Oc2ccc(NC(=O)Nc3ccc(Cl)c(C(F)(F)F)c3)cc2)ccn1
- per cent of control [1]: 68%
- per cent of control [2]: 90%
- per cent of control [3]: 100%
- per cent of control [4]: 68%
- per cent of control [5]: 75%
- per cent of control [6]: 0.05%
- per cent of control [7]: 84%
- per cent of control [8]: 100%
- per cent of control [9]: 62%
- per cent of control [10]: 95%
- per cent of control [11]: 100%
- per cent of control [12]: 67%
- per cent of control [13]: 60%
- per cent of control [14]: 0.9%
- per cent of control [15]: 0.45%
- per cent of control [16]: 76%
- per cent of control [17]: 53%
- per cent of control [18]: 76%
- per cent of control [19]: 11%
- per cent of control [20]: 42%
- per cent of control [21]: 100%
- per cent of control [22]: 90%
- per cent of control [23]: 90%
- per cent of control [24]: 100%
- per cent of control [25]: 100%
- per cent of control [26]: 100%
- per cent of control [27]: 89%
- per cent of control [28]: 100%
- per cent of control [29]: 70%
- per cent of control [30]: 100%
- per cent of control [31]: 94%
- per cent of control [32]: 0%
- per cent of control [33]: 100%
- per cent of control [34]: 46%
- per cent of control [35]: 100%
- per cent of control [36]: 94%
- per cent of control [37]: 16%
- per cent of control [38]: 100%
- per cent of control [39]: 95%
- per cent of control [40]: 2.8%
- per cent of control [41]: 98%

SMILES: CNC(=O)c1cc(Oc2ccc(NC(=O)Nc3ccc(Cl)c(C(F)(F)F)c3)cc2)cc[n+]1[O-]
- per cent of control [1]: 22%
- per cent of control [2]: 93%
- per cent of control [3]: 68%
- per cent of control [4]: 19%
- per cent of control [5]: 45%
- per cent of control [6]: 0.1%
- per cent of control [7]: 91%
- per cent of control [8]: 96%
- per cent of control [9]: 53%
- per cent of control [10]: 87%
- per cent of control [11]: 95%
- per cent of control [12]: 69%
- per cent of control [13]: 26%
- per cent of control [14]: 0.3%
- per cent of control [15]: 0.7%
- per cent of control [16]: 91%
- per cent of control [17]: 59%
- per cent of control [18]: 73%
- per cent of control [19]: 11%
- per cent of control [20]: 0.1%
- per cent of control [21]: 100%
- per cent of control [22]: 100%
- per cent of control [23]: 71%
- per cent of control [24]: 100%
- per cent of control [25]: 93%
- per cent of control [26]: 93%
- per cent of control [27]: 88%
- per cent of control [28]: 100%
- per cent of control [29]: 83%
- per cent of control [30]: 98%
- per cent of control [31]: 99%
- per cent of control [32]: 0%
- per cent of control [33]: 98%
- per cent of control [34]: 42%
- per cent of control [35]: 95%
- per cent of control [36]: 81%
- per cent of control [37]: 26%
- per cent of control [38]: 100%
- per cent of control [39]: 100%
- per cent of control [40]: 3.5%
- per cent of control [41]: 78%
